The text below walks through data of paper PMC7143545, “Specific NDM-1 Inhibitor of Isoliquiritin Enhances the Activity of Meropenem against NDM-1-positive Enterobacteriaceae in vitro” (International Journal of Environmental Research and Public …, 2020).

The test addresses T1, New Delhi metallo-β-lactamase-1 (NDM-1) (Escherichia coli, UniProt E5KIY2).
T1 construct: gene blaNDM-1; His-tagged protein (pET28a), ndm-1 from E. coli ZC-YN3
As to the kind of experiment: nitrocefin hydrolysis inhibition assay with purified enzyme. The test is classed as biochemical.

pIC50: −log10 of the molar value.

T1 sequence (E5KIY2 29-270 limits assumed): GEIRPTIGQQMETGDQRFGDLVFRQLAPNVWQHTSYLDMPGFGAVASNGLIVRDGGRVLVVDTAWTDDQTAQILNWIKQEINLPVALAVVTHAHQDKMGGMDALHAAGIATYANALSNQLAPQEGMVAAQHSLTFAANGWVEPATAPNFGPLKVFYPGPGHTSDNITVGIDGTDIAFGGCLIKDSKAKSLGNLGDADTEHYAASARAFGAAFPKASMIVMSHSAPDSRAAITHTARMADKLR

Consider `O=C(/C=C/c1ccc(O[C@@H]2O[C@H](CO)[C@@H](O)[C@H](O)[C@H]2O)cc1)c1ccc(O)cc1O` [isoliquiritin], for which the pIC50 (as a rule, −log10 of the IC50, conventionally taken in molar units) was 4.04.
